Activity calls are given as the source filed them. No cut-off for these calls is given here.

Our source for the Ratio Ki, Ki and inhibition values is ChEMBL document CHEMBL1156165, “Novel 8-(furan-2-yl)-3-substituted thiazolo [5,4-e][1,2,4] triazolo[1,5-c] pyrimidine-2(3H)-thione derivatives as potential adenosine A(2A) receptor antagonists” (Bioorg Med Chem, 2010).

The species named for one experiment is Homo sapiens. The experiment is described as follows: Selectivity ratio of Ki for human adenosine A1 receptor to Ki for human adenosine A2A receptor.
Another experiment deals with Adenosine receptor A2a (Homo sapiens, UniProt P29274). The experiment in a line: biochemical.
The target in a further experiment is T1, Adenosine receptor A1 (Homo sapiens, UniProt P30542).
T1 sequence (P30542 whole entry): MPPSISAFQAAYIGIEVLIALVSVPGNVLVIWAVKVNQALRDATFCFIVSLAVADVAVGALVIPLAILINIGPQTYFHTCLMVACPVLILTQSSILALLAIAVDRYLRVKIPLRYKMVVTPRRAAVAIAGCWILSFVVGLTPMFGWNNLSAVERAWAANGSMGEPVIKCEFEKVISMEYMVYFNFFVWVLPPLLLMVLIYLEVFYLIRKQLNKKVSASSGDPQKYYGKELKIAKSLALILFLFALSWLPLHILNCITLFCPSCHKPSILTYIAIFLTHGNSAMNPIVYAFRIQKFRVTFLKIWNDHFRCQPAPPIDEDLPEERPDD
The experiment is described as follows: biochemical.

Experiment [1] concerns Mus musculus. The experiment in a line: Inhibition of haloperidol-induced catalepsy in Swiss albino mouse at 5 mg/kg, ip administered 30 mins prior to haloperidol challenge measured after 15 to 120 mins. More on the design: dose 5 mg/kg. The experiment is classed as functional, organism-based.
Experiment [2] relates to Mus musculus. The experiment is described as follows: Inhibition of haloperidol-induced catalepsy in Swiss albino mouse at 10 mg/kg, ip administered 30 mins prior to haloperidol challenge measured after 15 to 120 mins. The experiment is classed as functional, organism-based. The arrangement: dose 10 mg/kg.
For experiment [3], the system named is Mus musculus. The experiment is described as follows: Inhibition of haloperidol-induced catalepsy in Swiss albino mouse at 20 mg/kg, ip administered 30 mins prior to haloperidol challenge measured after 15 to 120 mins. The experiment is classed as functional, organism-based. More on the design: dose 20 mg/kg.
In experiment [4] the test system is Mus musculus. The experiment in a line: Inhibition of haloperidol-induced akinesia in Swiss albino mouse at 5 mg/kg, ip administered 30 mins prior to haloperidol challenge measured after 15 to 120 mins. The experiment is classed as functional, organism-based. The arrangement: dose 5 mg/kg.
Experiment [5] has as its system Mus musculus. The experiment is described as follows: Inhibition of haloperidol-induced akinesia in Swiss albino mouse at 10 mg/kg, ip administered 30 mins prior to haloperidol challenge measured after 15 to 120 mins. The arrangement: dose 10 mg/kg. The experiment is classed as functional, organism-based.
Experiment [6] deals with Mus musculus. The experiment is described as follows: Inhibition of haloperidol-induced akinesia in Swiss albino mouse at 20 mg/kg, ip administered 30 mins prior to haloperidol challenge measured after 15 to 120 mins. The arrangement: dose 20 mg/kg. The experiment is classed as functional, organism-based.

Adenosine receptor A2a, sequence (P29274 whole entry): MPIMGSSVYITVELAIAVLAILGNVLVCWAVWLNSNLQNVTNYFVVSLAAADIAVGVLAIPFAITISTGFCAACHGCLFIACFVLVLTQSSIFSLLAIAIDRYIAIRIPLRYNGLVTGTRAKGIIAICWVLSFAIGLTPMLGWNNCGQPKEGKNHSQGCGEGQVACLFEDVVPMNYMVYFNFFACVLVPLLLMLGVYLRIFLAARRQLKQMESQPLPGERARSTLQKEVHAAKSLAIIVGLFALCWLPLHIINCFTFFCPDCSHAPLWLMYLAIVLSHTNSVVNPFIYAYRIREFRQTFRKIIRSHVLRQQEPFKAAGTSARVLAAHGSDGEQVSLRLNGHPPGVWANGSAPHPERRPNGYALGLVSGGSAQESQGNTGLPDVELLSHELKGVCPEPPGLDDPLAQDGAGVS
Description for Adenosine receptor A1: Displacement of [3H]DPCPX from human adenosine A1 receptor expressed in HEK293 cells after 60 mins by rapid filtration assay
Description for Adenosine receptor A2a: Displacement of [3H]ZM241385 from human adenosine A2A receptor expressed in HEK293 cells after 60 mins by rapid filtration assay

`CCn1c(=S)sc2c1ncn1nc(-c3ccco3)nc21`: the Ratio Ki in the experiment filed under Homo sapiens was 0.028. Further, the inhibition constant (Ki) on Adenosine receptor A2a amounted to 3.56 nM; at Adenosine receptor A1, 0.096 nM.

With `CCCn1c(=S)sc2c1ncn1nc(-c3ccco3)nc21`, the Ratio Ki in the experiment listed under Homo sapiens is 636. Also, the inhibition entry in the experiment on Mus musculus [1], in the experiment on Mus musculus [2], with Mus musculus [3], in the experiment on Mus musculus [4], in the experiment with Mus musculus [5] and in the experiment on Mus musculus [6] was “Active” in each case. The Ki on Adenosine receptor A2a was 0.38 nM; at Adenosine receptor A1, 228 nM.

`S=c1sc2c(ncn3nc(-c4ccco4)nc23)n1-c1ccccc1`: in the experiment filed under Homo sapiens, the Ratio Ki turned out to be 46.6. Also, the inhibition constant (Ki) on Adenosine receptor A2a was 1.1 nM; at Adenosine receptor A1 it was 48 nM.

On to `S=c1sc2c(ncn3nc(-c4ccco4)nc23)n1-c1ccccc1I`, for which the Ratio Ki in the experiment listed under Homo sapiens is 0.571. Besides, the inhibition constant (Ki) at Adenosine receptor A2a is 0.7 nM; on Adenosine receptor A1, 0.4 nM.

`S=c1sc2c(ncn3nc(-c4ccco4)nc23)n1-c1ccc(Cl)cc1`: the Ratio Ki in the experiment listed under Homo sapiens came to 0.197. Further, the figures for the inhibition constant Ki at Adenosine receptor A2a and on Adenosine receptor A1 were 0.152 nM and 0.03 nM, respectively.

For the compound `CCCCn1c(=S)sc2c1ncn1nc(-c3ccco3)nc21`, in the experiment filed under Homo sapiens, the Ratio Ki was found to be 1290. Moreover, the inhibition result in the experiment with Mus musculus [1], in the experiment with Mus musculus [2], in the experiment on Mus musculus [3], in the experiment on Mus musculus [4], with Mus musculus [5] and with Mus musculus [6] was “Active” in each case. The inhibition constant (Ki) at Adenosine receptor A2a came to 0.12 nM; at Adenosine receptor A1, 148 nM.

As for `C=CCn1c(=S)sc2c1ncn1nc(-c3ccco3)nc21`, in the experiment filed under Homo sapiens, the Ratio Ki was 1250. Besides, the inhibition result in the experiment with Mus musculus [1], with Mus musculus [2], in the experiment on Mus musculus [3], in the experiment on Mus musculus [4], with Mus musculus [5] and with Mus musculus [6] was “Active” in each case. Besides, the inhibition constant Ki on Adenosine receptor A2a was found to be 0.016 nM; on Adenosine receptor A1, 19 nM.

Take `S=c1sc2c(ncn3nc(-c4ccco4)nc23)n1-c1cccc(I)c1`: in the experiment listed under Homo sapiens, the Ratio Ki came out at 320. Further, the values for the inhibition constant Ki at Adenosine receptor A2a and at Adenosine receptor A1 were 0.0082 nM and 2.62 nM, respectively.

Consider `S=c1sc2c(ncn3nc(-c4ccco4)nc23)n1-c1ccc(I)cc1`, for which the Ratio Ki in the experiment listed under Homo sapiens stood at 10.8. Further, the Ki at Adenosine receptor A2a came out at 0.57 nM; at Adenosine receptor A1, 6.13 nM.

For the compound `S=c1sc2c(ncn3nc(-c4ccco4)nc23)n1-c1cccc(Cl)c1`, the Ratio Ki in the experiment filed under Homo sapiens worked out at 5. For the same compound, the inhibition constant Ki is 0.038 nM on Adenosine receptor A2a and 0.19 nM on Adenosine receptor A1.

As for `Fc1ccc(-n2c(=S)sc3c2ncn2nc(-c4ccco4)nc32)cc1`, the Ratio Ki in the experiment filed under Homo sapiens came to 1.59. The Ki on Adenosine receptor A2a was 2.02 nM; on Adenosine receptor A1, 3.21 nM.

A word on the Ki: it is a measure of affinity in units of concentration, obtained from inhibition or displacement.
